Source: article PMC4721545 (Bioscience Reports, 2015)
Read-outs that look alike come from different tables or passages of the source.

What was measured:
ROCK II = target: T1, ROCK II (Homo sapiens, UniProt O75116); assay: ROCK inhibition by mobility shift assay, ROCK II; format: biochemical; conditions: ATP con. 5.3 μM
T1 construct: purchased Carna
Description: (§1) Staurosporine (Sigma) was used as positive control and saline was used as negative control.
(§2) DMSO (100 μl) was added to two empty wells for no compound control and no enzyme control in the same 96-well plate. Mobility shift assay was performed according to the manufacturer's protocol. […] The mixtures (5 μl) were incubated with 2.5× enzyme solution (10 μl) in 384-well plate at room temperature for 10 min and control was performed by adding 5 μl of kinase buffer.
(§3) Percentinhibition=max−conversion/max−min×100
(§4) where max stands for DMSO control; min stands for low control.

BV-2 microglia [1] = assay: MTT cell viability assay, BV-2 microglia; format: cell-based; conditions: 24 h
Description: (§5) The BV-2 immortalized microglial cell line was purchased from ShenKe Biological Technology Co. and cultured in Dulbecco's modified Eagle's medium (DMEM; Gibco), supplemented with 10% FBS (Gibco), 100 units/ml penicillin and 100 μg/ml streptomycin (Gibco) at 37°C in a humidified cell incubator under a 95%/5% (v/v) mixture of air and CO2. Cells were plated on a 96-well plate at a density of 1.0×10^6 /ml (200 μl/well), on a 24-well plate at 1.0×10^6/ml (500 μl/well) and at 0.2×10^6 /ml (500 μl/well) for different experiments.
(§6) Cell viability of BV-2 microglia and primary neurons was detected by MTT assay. In brief, 100 μl of MTT solution (0.5 mg ml^−1, Duchefa) was added to cultured cells and incubated for an additional 4 h at 37°C, until the medium turned purple. Absorbance at 570 nm was measured by a microplate reader after addition of 100 μl DMSO. Each experiment was performed in triplicate and repeated three times with separate cell preparations. Results were expressed as a percentage of the control value at 570 nm.

[2] = tested on: BDNF, GDNF, NT-3, Nogo protein in brain; assay: Western blot of neurotrophic factors and Nogo in brain of EAE mice; format: in vivo, mouse; conditions: day 28 p.i., vs control EAE mice; for expression of BDNF protein in brain / expression of GDNF protein in brain / expression of NT-3 protein in brain: P<0.05
Description: (§7) Mice were divided into three groups: Fasudil-treated group (n=8), FSD-C10-treated group (n=8) and double-distilled water (ddH2O) EAE control group (n=9). […] Mice were i.p. injected with 800 μg/200 μl/daily from day 3 to day 27 p.i. Mice that received the same volume of ddH2O i.p. served as control. Protein from brains was homogenized on ice with an extraction kit and protein concentration was determined by a Bradford protein assay. Protein extracts (30 μg) were separated by SDS/PAGE and transferred on to a PVDF membrane (Immobilon-P; Millipore Corp.). The membranes were then incubated with anti-GDNF (glial cell line-derived neurotrophic factor; 1:1000, Epitomics), anti-BDNF (brain-derived neurotrophic factor; 1:1000, Promega), anti-NT-3(neurotrophin-3; 1:1000, Epitomics), anti-Nogo(1:1000, Epitomics), anti-iNOS (inducible nitric oxide synthase) (1:1000, Cell Signaling Technology) […], anti-arginase-1 ([…]) (1:1000, BD Bioscience) and anti-β-actin (1:10000, Cell Signaling Technology) for overnight at 4°C. Bands were visualized by horseradish peroxidase (HRP-) conjugated secondary antibodies and ECL kit under ECL system (GE Healthcare Life Sciences).

BV-2 microglia [3] = assay: LDH release cell death assay and morphology, BV-2 microglia; format: cell-based; conditions: for BV-2 microglia cell death / morphology: 75 μg/ml and 200 μg/ml, 48 h culture; for death of BV-2 microglia (LDH release): 24 h
Description: as §5
(§8) The death of BV-2 microglia and primary neurons was measured by LDH release in the culture medium. Levels of LDH release in supernatants of cultured cells were measured using the cytotoxicity detection kit (Promega) according to the manufacturer's protocol. Maximum LDH release (A570) was determined following the treatment of cells with lysis buffer and considered as control value (100% LDH release). Data were expressed as a percentage of the control value.

EAE in C57BL/6 mice [4] = tested on: EAE in C57BL/6 mice; parameters: method as in PMID 24749492; conditions: previous studies; cited from earlier work
EAE in C57BL/6 mice [5] = assay: Chronic EAE induced with MOG35-55, clinical score and body weight; format: in vivo, mouse; conditions: 800 μg/200 μl daily i.p., day 3 to 27 p.i.; for mean clinical score: EAE control 1.29±1.08, P<0.001; for maximum clinical score: EAE control 2.78; for body weight loss vs EAE mice: P<0.001
Description: Female C57BL/6 mice (8–10 weeks old and 18–20 g of body weight) were purchased from Vital River Laboratory Animal Technology Co. Ltd. All experiments were conducted in accordance with the guidelines of the International Council for Laboratory Animal Science. The study was approved by the Ethics Committee of Shanxi Datong University. […].
Mouse myelin oligodendrocyte glycoprotein peptide 35–55 (MOG35–55, MEVGW […]) was produced in an automatic synthesizer (CL. Bio-Scientific Company). The purity of the peptide was >95% as determined by HPLC. Chronic EAE was induced by subcutaneous immunization on the upper dorsal flanks with 300 μg of MOG35–55 in Freund's complete adjuvant (Sigma) supplemented with 3 mg/ml of M. Tuberculosis H37Ra (BD Difco; […]). Mice were injected intraperitoneally (i.p.) with 500 ng of pertussis toxin (Enzo Life Sciences) on days 0 and 2 post-immunization (p.i.). Animals were weighed and evaluated for clinical score every other day in a blinded fashion by at least two investigators. Clinical score of EAE was graded according to the following criteria: 0: healthy; 1: limp tail; 2: ataxia and/or paresis of hind limbs; 3: paralysis of hind limbs and/or paresis of forelimbs; 4: tetraparalysis; and 5: moribund or death. When the clinical score of EAE reaches 3, we give suitable care including softening of food with water in dish and additional nutrients such as egg, making mice easy to obtain food and nutrition.
Mice were divided into three groups: Fasudil-treated group (n=8), FSD-C10-treated group (n=8) and double-distilled water (ddH2O) EAE control group (n=9). […] Mice were i.p. injected with 800 μg/200 μl/daily from day 3 to day 27 p.i. Mice that received the same volume of ddH2O i.p. served as control.

BV-2 microglia [6] = assay: Dendritic formation of BV-2 microglia (Image J); format: cell-based; conditions: for breakage of dendritic branches on BV-2 microglia: 75 and 200 μg/ml; for dendritic length of BV-2 microglia (mean): PBS control 2.94 μm, P<0.001
Description: as §5
(§9) Fluorescent photomicrographs of neurons with microtubule-associated protein-2 (MAP-2) staining or photomicrographs of BV-2 cells under inverted microscope were captured with a 20× objective and a digital camera of Olympus microscope. Images were acquired from randomly selected fields for each group. The length of the longest neurite outgrown or dendritic formation in the cell body was measured by an investigator blinded to the experimental groups using a public-domain image-processing program (Image J, http://rsb.info.nih.gov/ij). Average lengths of neuronal neurite or dendritic formation were used for quantification.

primary neurons [7] = assay: Neurite outgrowth of primary neurons (MAP-2 staining, Image J); format: cell-based, mouse; conditions: PBS control 4.1 μm; P<0.01
Description: (§10) Embryonic 18-day-mouse cortex (Shanghai SLAC Laboratory Animal Co. Ltd) were dissected under a microscope and then triturated into the suspension in Neurobasal-A-medium (Gibco) supplemented with 2% B27 (Gibco), 100 units/ml penicillin and 100 μg/ml streptomycin (Gibco). The cells were then plated on cover slips coated with poly-D-lysine (0.1 mg/ml; Sigma) at a density of 1×10^6 cells per cm^2 at 37°C in a humidified cell incubator under a 95%/5% (v/v) mixture of air and CO2, with the cell media being replaced every 48 h. After 7 days, neurons were incubated with different conditioned medium.
as §9

primary neurons [8] = assay: LDH release cell death assay, primary neurons; format: cell-based; conditions: 24 h
Description: as §10, §8

[9] = tested on: iNOS and Arg-1 expression in brain; assay: Western blot of iNOS and Arg-1 in brain of EAE mice (M1/M2 polarization); format: in vivo, mouse; conditions: day 28 p.i.
Description: as §7

primary neurons [10] = assay: MTT cell viability assay, primary neurons; format: cell-based, mouse; conditions: 24 h
Description: as §10, §6

ROCK I = target: T2, ROCK I (Homo sapiens, UniProt Q13464); assay: ROCK inhibition by mobility shift assay, ROCK I; format: biochemical; conditions: ATP con. 3.6 μM
T2 construct: purchased Carna
T2 sequence (Q13464 whole entry): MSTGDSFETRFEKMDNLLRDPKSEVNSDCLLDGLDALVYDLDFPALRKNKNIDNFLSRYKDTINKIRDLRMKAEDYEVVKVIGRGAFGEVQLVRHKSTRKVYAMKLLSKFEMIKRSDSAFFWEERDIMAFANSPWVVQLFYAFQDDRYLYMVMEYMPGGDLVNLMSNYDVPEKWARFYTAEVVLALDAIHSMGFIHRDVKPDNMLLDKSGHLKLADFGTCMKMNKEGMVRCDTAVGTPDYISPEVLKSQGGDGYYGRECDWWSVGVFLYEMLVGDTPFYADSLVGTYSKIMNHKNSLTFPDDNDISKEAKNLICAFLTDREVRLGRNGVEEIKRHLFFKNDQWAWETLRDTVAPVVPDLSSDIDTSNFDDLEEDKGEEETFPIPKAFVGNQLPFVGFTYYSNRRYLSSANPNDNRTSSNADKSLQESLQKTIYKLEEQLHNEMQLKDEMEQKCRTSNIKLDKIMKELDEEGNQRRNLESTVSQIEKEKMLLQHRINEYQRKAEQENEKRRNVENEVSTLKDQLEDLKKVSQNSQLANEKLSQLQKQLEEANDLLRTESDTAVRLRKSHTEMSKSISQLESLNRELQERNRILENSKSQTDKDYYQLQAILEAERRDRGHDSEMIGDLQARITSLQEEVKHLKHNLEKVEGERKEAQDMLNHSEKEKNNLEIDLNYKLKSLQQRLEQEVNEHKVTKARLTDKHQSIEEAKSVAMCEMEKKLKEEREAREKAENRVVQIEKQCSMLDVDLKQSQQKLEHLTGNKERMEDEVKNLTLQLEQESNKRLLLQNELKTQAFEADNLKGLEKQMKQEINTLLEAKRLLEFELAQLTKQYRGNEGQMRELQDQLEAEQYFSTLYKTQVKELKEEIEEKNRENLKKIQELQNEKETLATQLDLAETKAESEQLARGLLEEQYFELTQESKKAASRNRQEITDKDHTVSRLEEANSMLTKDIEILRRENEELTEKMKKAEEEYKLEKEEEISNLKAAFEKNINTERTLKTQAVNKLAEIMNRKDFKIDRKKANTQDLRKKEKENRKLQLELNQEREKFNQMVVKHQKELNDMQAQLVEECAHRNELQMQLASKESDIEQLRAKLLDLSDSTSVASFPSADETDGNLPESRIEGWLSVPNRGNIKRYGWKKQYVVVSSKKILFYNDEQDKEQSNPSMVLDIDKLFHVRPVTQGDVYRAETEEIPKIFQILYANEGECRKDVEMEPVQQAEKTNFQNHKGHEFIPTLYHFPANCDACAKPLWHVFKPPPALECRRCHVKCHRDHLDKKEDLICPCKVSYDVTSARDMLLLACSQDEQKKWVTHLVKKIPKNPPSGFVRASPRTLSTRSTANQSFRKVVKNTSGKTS
Description: as §1, §2, §3, §4

C57BL/6 mice = assay: Test of vasodilation in naive mice; format: in vivo; conditions: healthy mice, 800 μg/mouse i.p., after 30 and 60 min
mice = format: in vivo; conditions: within 2 h
Description: […]. […] Given that FSD-C10 was well tolerant in vivo, further pre-clinical studies are valuable for the treatment of MS.
[…]. […] TEXT PRINTED IN THE PICTURE: (b) Fasudi: Mortality (%): 0% (800 μg /mouse/day); Mortality (%): 33% (1600 μg /mouse/day); Mortality (%): 67% (2000 μg /mouse/day) | (b) FSD-C10: Mortality (%): 0% (800 μg /mouse/day); Mortality (%): 0% (1600 μg /mouse/day); Mortality (%): 0% (2000 μg /mouse/day)

T1 sequence (O75116 whole entry): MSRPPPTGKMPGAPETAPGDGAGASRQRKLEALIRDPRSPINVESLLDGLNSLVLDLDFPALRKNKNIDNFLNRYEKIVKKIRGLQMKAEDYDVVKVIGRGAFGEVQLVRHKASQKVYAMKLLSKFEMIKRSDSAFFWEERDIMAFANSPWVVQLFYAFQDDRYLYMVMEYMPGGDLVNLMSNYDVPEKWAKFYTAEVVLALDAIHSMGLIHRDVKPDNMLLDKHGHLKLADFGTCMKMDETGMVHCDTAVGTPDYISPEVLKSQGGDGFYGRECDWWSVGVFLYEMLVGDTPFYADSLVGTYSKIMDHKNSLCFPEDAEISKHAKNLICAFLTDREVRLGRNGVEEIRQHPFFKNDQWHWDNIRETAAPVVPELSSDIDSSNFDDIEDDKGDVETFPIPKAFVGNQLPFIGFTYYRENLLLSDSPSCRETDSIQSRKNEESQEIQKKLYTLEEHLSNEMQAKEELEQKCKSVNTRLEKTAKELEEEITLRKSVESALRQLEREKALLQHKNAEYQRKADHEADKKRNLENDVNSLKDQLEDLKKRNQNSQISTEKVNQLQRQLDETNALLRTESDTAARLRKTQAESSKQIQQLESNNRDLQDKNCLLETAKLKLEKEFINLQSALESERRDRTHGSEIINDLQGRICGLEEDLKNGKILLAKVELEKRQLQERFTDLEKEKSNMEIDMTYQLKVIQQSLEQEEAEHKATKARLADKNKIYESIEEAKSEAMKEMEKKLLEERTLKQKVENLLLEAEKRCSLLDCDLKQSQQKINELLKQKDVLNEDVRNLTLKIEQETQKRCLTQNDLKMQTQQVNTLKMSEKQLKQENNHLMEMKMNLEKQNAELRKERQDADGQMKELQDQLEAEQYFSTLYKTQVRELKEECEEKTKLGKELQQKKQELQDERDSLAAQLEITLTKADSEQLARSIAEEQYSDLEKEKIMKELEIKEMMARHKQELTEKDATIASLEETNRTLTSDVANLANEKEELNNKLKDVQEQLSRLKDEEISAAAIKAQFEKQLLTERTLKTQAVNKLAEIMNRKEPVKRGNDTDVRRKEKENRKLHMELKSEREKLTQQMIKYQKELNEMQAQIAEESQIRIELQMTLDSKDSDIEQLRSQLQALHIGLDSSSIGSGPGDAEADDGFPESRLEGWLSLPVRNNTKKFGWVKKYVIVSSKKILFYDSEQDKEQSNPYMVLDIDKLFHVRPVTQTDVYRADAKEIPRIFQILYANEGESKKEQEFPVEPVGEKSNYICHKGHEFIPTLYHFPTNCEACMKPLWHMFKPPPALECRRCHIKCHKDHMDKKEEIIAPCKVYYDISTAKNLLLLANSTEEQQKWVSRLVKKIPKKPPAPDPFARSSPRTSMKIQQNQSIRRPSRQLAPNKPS

With `O=S(=O)(c1cccc2cnccc12)N1CCC[C@H]1CCl` [FSD-C10] the IC50 (ROCK II) was 711 nM, the “viability of BV-2 microglia (MTT)” value (BV-2 microglia [1]; 75 μg/ml, vs control) was “did not lead to significant decrease” and the “viability of BV-2 microglia (MTT)” value (BV-2 microglia [1]; 0.6–15 μg/ml) was “did not influence”. The “expression of Nogo protein in brain” value [2] was “slightly, although not significantly, declined”, the “expression of BDNF protein in brain” value [2] was “significantly enhanced” and the “expression of GDNF protein in brain” value [2] was “significantly enhanced”. For the same compound, the “expression of NT-3 protein in brain” value [2] was “significantly enhanced”, the “BV-2 microglia cell death / morphology” value (BV-2 microglia [3]) was “good cell morphology” and the “death of BV-2 microglia (LDH release)” value (BV-2 microglia [3]; 75 μg/ml, vs control) was “did not lead to significant decrease”. For the same compound, the “death of BV-2 microglia (LDH release)” value (BV-2 microglia [3]; 0.6–15 μg/ml) was “did not influence”, the “BV-2 cell death at higher doses with the extension of time” value (BV-2 microglia [3]; ≥200 μg/ml, result not shown) was “caused cell death” and the “clinical severity of EAE” value (EAE in C57BL/6 mice [4]) was “ameliorated”. For the same compound, the mean clinical score (EAE in C57BL/6 mice [5]) was 0.28±0.23, the maximum clinical score (EAE in C57BL/6 mice [5]) was 0.50 and the “body weight loss vs EAE mice” value (EAE in C57BL/6 mice [5]) was “less body weight loss”. For the same compound, the “breakage of dendritic branches on BV-2 microglia” value (BV-2 microglia [6]) was “did not cause significant breakage”, the “dendritic length of BV-2 microglia (mean)” value (BV-2 microglia [6]) was 12.5 μm and the “neurite length of primary neurons (mean)” value (primary neurons [7]) was 10.5 μm. For the same compound, the “death of primary neurons (LDH release)” value (primary neurons [8]; 75 μg/ml, vs control) was “did not lead to significant decrease”, the “death of primary neurons (LDH release)” value (primary neurons [8]; 0.6–15 μg/ml) was “did not influence” and the “Arg-1 expression in brain” value [9] was “elevated”. For the same compound, the “iNOS expression in brain” value [9] was “inhibited”, the “viability of primary neurons (MTT)” value (primary neurons [10]; 75 μg/ml, vs control) was “did not lead to significant decrease” and the “viability of primary neurons (MTT)” value (primary neurons [10]; 0.6–15 μg/ml) was “did not influence”. For the same compound, the IC50 (ROCK I) was 1140 nM and the “vasodilation on the foot of mice” value (C57BL/6 mice) was “relatively weak vasodilator effect”.
For `Cl.O=S(=O)(c1cccc2cnccc12)N1CCCNCC1` [Fasudil, hexahydro-1-(5-isoquinolinyl-sulfonyl)-1H-1,4-diazepine monohydrochloride, reference compound], the “viability of BV-2 microglia (MTT)” value (BV-2 microglia [1]; 75 μg/ml, vs control) was “significant decrease”, the “viability of BV-2 microglia (MTT)” value (BV-2 microglia [1]; 0.6–15 μg/ml) was “did not influence” and the “expression of Nogo protein in brain” value [2] was “slightly, although not significantly, declined”. The “expression of BDNF protein in brain” value [2] was “significantly enhanced”, the “expression of GDNF protein in brain” value [2] was “significantly enhanced” and the “expression of NT-3 protein in brain” value [2] was “significantly enhanced”. For the same compound, the “BV-2 microglia cell death / morphology” value (BV-2 microglia [3]) was “obvious cell death”, the “death of BV-2 microglia (LDH release)” value (BV-2 microglia [3]; 0.6–15 μg/ml) was “did not influence” and the mean clinical score (EAE in C57BL/6 mice [5]) was 0.04±0.07. The maximum clinical score (EAE in C57BL/6 mice [5]) was 0.19, the “body weight loss vs EAE mice” value (EAE in C57BL/6 mice [5]) was “less body weight loss” and the “breakage of dendritic branches on BV-2 microglia” value (BV-2 microglia [6]) was “caused significant breakage”. For the same compound, the “dendritic length of BV-2 microglia (mean)” value (BV-2 microglia [6]) was 12.5 μm, the “Mortality (%)” value (mice; 800 μg/mouse i.p.) was 0% and the “Mortality (%)” value (mice; 1600 μg/mouse i.p.) was 33%. The “Mortality (%)” value (mice; 2000 μg/mouse i.p.) was 67%, the “neurite length of primary neurons (mean)” value (primary neurons [7]) was 6.6 μm and the “death of primary neurons (LDH release)” value (primary neurons [8]; 0.6–15 μg/ml) was “did not influence”. For the same compound, the “Arg-1 expression in brain” value [9] was “elevated”, the “iNOS expression in brain” value [9] was “inhibited” and the “viability of primary neurons (MTT)” value (primary neurons [10]; 75 μg/ml, vs control) was “significant decrease”. The “viability of primary neurons (MTT)” value (primary neurons [10]; 0.6–15 μg/ml) was “did not influence” and the “vasodilation on the foot of mice” value (C57BL/6 mice) was “obvious vasodilation”.
